Laboratory results: patent US9474749B2 (priority 2004, dated 2016)

Key:
BACE-2 = BACE-2 mRNA expression in HTB-11 cells (RT-PCR)
Description: (§1) SH-SY5Y human neuroblastoma cells (ATCC, USA) were cultured in Dulbecco's modified Eagle's medium/Ham's nutrient mixture (DMEM-F12) (Invitrogen, USA), and HTB-11 human neuroblastoma cells (ATCC, USA) were cultured in Minimum Essential Medium Alpha Medium (MEM-α) (Invitrogen, USA). […] All treatments were performed under a sterile hood.
(§2) After the treatment time-period, cells were harvested, and total RNA was extracted using RNeasy RNA Isolation kit (Qiagen) following the manufacturer's procedures. Total RNA yield was determined using a Spectrophotometer RNA/DNA calculator (Pharmacia Biotech). Total RNA concentration was then standardized for semi-quantitative RT-PCR, which was carried out in a Geneamp Thermocycler PCR System 9700 (P.E. Applied Biosystems). […] PCR products and a 100 bp DNA marker were then loaded in a 2% agarose gel stained with ethidium bromide. Gel electrophoresis was performed using a power-supply (E-C Apparatus Corp.) set at 110V with constant amperage for 1.5 hours. Gels were then photographed using a Gel Documentation System (UVP), and bands analyzed using Gel-Pro Analyzer (MediaCybernetics) on a P4 Windows machine.

BACE-1 = BACE-1 mRNA expression in HTB-11 cells (RT-PCR)
Description: as §1, §2

[1] = system: Mytilus edulis pedal ganglia; assay: Endogenous morphine levels in excised pedal ganglia incubated in vitro (HPLC, RIA); format: cell-based; conditions: for morphine per ganglion wet weight / ganglionic morphine levels versus control: in vitro; for morphine per ganglion wet weight: 5-hydroxytryptophan 1 μg/gm tissue, vehicle 2.1±0.44; for effect of enzyme inhibitor on precursor-induced morphine production: quinidine with tyramine, AMPT with tyrosine, concentration dependent; for morphine in ganglia: 10 μg of each compound, control 11.9; for ganglionic morphine levels versus control: 50 and 100 ng, 60 minutes; for ganglionic morphine levels after in vitro incubation: ganglionic wet weight, before: 1.08±0.27 (tyramine), 0.96±0.31 (tyrosine); for share of added precursor converted to morphine: in vitro ganglia incubation; for ganglionic morphine levels after exposure: 10^−6 M (FIG. 20)
[2] = system: Mytilus edulis pedal ganglia; assay: Ganglionic morphine levels after injection into the foot of intact animals; conditions: for pedal ganglionic morphine levels after injection: one hour after injection into the foot; for morphine levels after injection of inhibitor alone: 10^−4 M via the foot; for ganglionic morphine levels after injection: 10^−5 M in the foot, one hour, controls 1.02±0.24; for decrease in ganglionic morphine levels when the respective enzyme inhibitor was topically applied: AMPT or quinidine 10^−4 M on pedal ganglia after amino acid injection
Description: For in vivo precursor injection experiments, the animal's foot was injected with either reticuline or L-DOPA (0.1 and 1 μg/injection, respectively). Chemicals were injected by BD 1 cc syringes with 26 G needles. Each needle was inserted into that base of the foot just above the pedal ganglia.
(§3) For in vivo treatments, the animal's foot (20 animals per treatment) was injected with tyrosine (10^−5 M), tyramine (10^−5 M), or saline. Other animals were exposed to the enzyme inhibitors AMPT or quinidine alone or immediately following the respective foot injection. […] All chemicals were purchased from Sigma (St. Louis, Mo.).

pedal ganglia = assay: NO release from excised pedal ganglia (NO-selective microprobe); format: cell-based, Mytilus edulis; conditions: for NO Peak Level / NO Peak Time: ligand 10^−7 M
Description: For the nitric oxide assay, ten pedal ganglia (per determination) dissected from M. edulis were bathed in 1 mL sterile phosphate buffered saline (PBS). […] For the opiate receptor antagonist experiments, ganglia were pretreated with naloxone for 10 minutes prior to reticuline addition. NO release was monitored with an NO-selective microprobe manufactured by World Precision Instruments (Sarasota, Fla.). The sensor was positioned approximately 100 μm above the respective tissue surface. […] The NO detection system was calibrated daily. The probe was allowed to equilibrate for 10 minutes in the incubation medium free of tissue before being transferred to vials containing the ganglia for another 5 minutes. Manipulation and handling of the ganglia was only performed with glass instruments. Data was acquired using the Apollo-4000 free radical analyzer (World Precision Instruments, Sarasota, Fla.). The experimental values were then transferred to Sigma-Plot and -Stat (Jandel, Calif.) for graphic representation and evaluation.

mu3 opiate receptor = biological target: T1, mu3 opiate receptor (Homo sapiens, UniProt P35372); assay: biochemical; format: binding
T1 construct: An additional 100 excised pedal ganglia and the human monocytes were separately washed and homogenized; host or cells: human monocytes
Description: For the nitric oxide assay, ten pedal ganglia (per determination) dissected from M. edulis were bathed in 1 mL sterile phosphate buffered saline (PBS). […] NO release was monitored with an NO-selective microprobe manufactured by World Precision Instruments (Sarasota, Fla.). The sensor was positioned approximately 100 μm above the respective tissue surface. […] The NO detection system was calibrated daily. The probe was allowed to equilibrate for 10 minutes in the incubation medium free of tissue before being transferred to vials containing the ganglia for another 5 minutes. Manipulation and handling of the ganglia was only performed with glass instruments. Data was acquired using the Apollo-4000 free radical analyzer (World Precision Instruments, Sarasota, Fla.). The experimental values were then transferred to Sigma-Plot and -Stat (Jandel, Calif.) for graphic representation and evaluation.
An additional 100 excised pedal ganglia and the human monocytes were separately washed and homogenized in 50 volumes of 0.32 M sucrose, pH 7.4, at 4° C. using a Brinkmann polytron (30 seconds, setting no. 5). The crude homogenate was centrifuged at 900×g for 10 minutes at 4° C., and the supernatant was reserved on ice. The whitish crude pellet was resuspended by homogenization (15 seconds, setting no. 5) in 30 volumes of 0.32 M sucrose/Tris-HCl buffer, pH 7.4, and centrifuged at 900×g for 10 minutes. The extraction procedure was repeated one more time, and the combined supernatants were centrifuged at 900×g for 10 minutes. The resulting supernatants (S1′) were used immediately. […] The P2 pellet was then re-suspended with a Dounce hand-held homogenizer (10 strokes) in 100 volumes of buffer. […]
Aliquots of membrane suspension (0.2 mL, 0.12 mg of membrane protein) were incubated in triplicate at 22° C. for 40 minutes with the appropriate radiolabeled ligand in the presence of dextrorphan (10 mM) or levorphanol (10 mM) in 10 mM Tris-HCl buffer, pH 7.4, containing 0.1% BSA and 150 mM KCl. […] Protein concentration was determined in membrane suspensions (prepared in the absence of BSA).

PMNs = assay: PMN activation level by computer-assisted image analysis (form factor); conditions: for level of PMN activation: IL-1β 2 ng/mL one hour, L-DOPA 10^−6 M, untreated 7.3±2.1%
Description: The morphological measurements of PMNs were based on cell area and perimeter determinations by the use of image analysis software (Compix, Mars, Pa.). […] The observational area used for measurement determinations and frame-grabbing was 0.4 μm in diameter.
After this incubation, the PMNs were evaluated for their activity level via computer-assisted image analysis.

[3] = system: human white blood cells / PMNs; assay: Morphine production by human WBC and PMNs (HPLC, RIA); format: cell-based; conditions: for WBC morphine concentrations versus untreated cells: P<0.001; for Morphine levels in media after the cells were removed: PMNs 3×10^6 cells, THP 100 μg, reticuline 50 μg, L-DOPA 100 μg, L-tyrosine 100 μg; for morphine concentrations in WBC: one-hour treatment, control 12.33±5.64
[4] = system: Mytilus edulis ganglia and hemolymph; assay: Dopamine levels in ganglia and hemolymph (HPLC UV)
Description: Mytilus edulis collected from the local waters of Long Island Sound were maintained as described herein. […] The pedal ganglia were incubated with and without tyrosine or tyramine in the presence of quinidine, a CYP2D6 inhibitor, and alpha methyl para tyrosine (AMPT), which inhibits tyrosine hydroxylase.
as §3
After ganglionic dissection, ganglia were pooled into one eppendorf tube, 1 ml of 1 N HCl was added, and the tissue was sonicated by sonic dismemberator (Fisher scientific, USA). Homogenized tissue was then transferred to a 15 mL polypropylene centrifuge tube (Fisher Scientific, PA, USA). 5 mL of chloroform/isopropanol (9:1, v/v) was added, and the contents of the tube vigorously vortexed for 5 minutes at room temperature. […] Supernatant (water soluble layer) was dispatched into pre-siliconized 1.5 tubes (Midwest Scientific) and kept at 4° C. for immediate use for HPLC determination or stored at −80° C. for further analysis.

[5] = system: SK-N-SH neuroblastoma cell line; format: cell-based, human
Description: Cell viability was determined via Trypan blue exclusion. An inverted light microscope (Nikon) with a phase-contrast filter was used to observe the cells. Pictures of the cells were taken via a digital camera (Optronix) attached to the microscope ocular. Images were uploaded onto ImagePro Plus Software (Applied Biosystems), where cell viability was calculated based on both the number of cells covering the field and the cells that present as dead from the stain. In addition, ImagePro Plus was used for determining cellular morphology. The area and perimeter were found and used in the formula (4π*Area)/(Perimeter)^2, resulting in a value between 0 (a straight line) and 1 (a perfect circle).

[6] = system: SK-N-SH neuroblastoma cell line; assay: NO release from SK-N-SH neuroblastoma cells
Description: The human SK-N-SH neuroblastoma cell line (ATCC #HTB-11) was used as a cellular model. Cells were propagated in Minimum Essential Medium alpha (MEMα) with 10% fetal bovine serum (FBS), 2% penicillin/streptomycin, 1.5 g/L NaHCO3, and 1.0 mM pyruvic acid. A 5% CO2 incubator (NAPCO) at 37° C. was used for maintenance of temperature and pH. […] When needed, cells were plated in 6- or 12-well plates using a hemocytometer (2×10^5 cells/well in 6-well plates or 1×10^5 cells/well in 12-well plates). Experimental manipulations were performed under sterile conditions under a lamina airflow hood after cells had adhered to the bottom of the plates.

[7] = system: SK-N-SH neuroblastoma cell line; assay: Cellular morphology (Form Factor) of neuroblastoma cells; format: cell-based, human; conditions: 10 μM
Mytilus animals = assay: TNF-α-induced death of animals; conditions: 10 U/mL TNF-α by injection, after 4 days
Description: 100 healthy Mytilus animals were treated with 10 U/mL of TNF-α by injection.

[8] = 1 μM morphine, 10 μM pre-treatment for twenty minutes

T1 sequence (P35372 1-314 isoform P35372-14): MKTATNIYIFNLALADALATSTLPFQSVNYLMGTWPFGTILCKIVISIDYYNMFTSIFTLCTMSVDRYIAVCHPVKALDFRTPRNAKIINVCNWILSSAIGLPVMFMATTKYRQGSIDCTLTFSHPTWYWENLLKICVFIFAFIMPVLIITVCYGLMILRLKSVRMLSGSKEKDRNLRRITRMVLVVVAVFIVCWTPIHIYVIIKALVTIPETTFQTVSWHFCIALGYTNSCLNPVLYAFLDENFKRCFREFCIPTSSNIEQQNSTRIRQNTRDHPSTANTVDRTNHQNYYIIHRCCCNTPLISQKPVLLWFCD

## CC(=O)NC(C(=O)O)C(C)(C)SN=O (racemic) [SNAP, S-Nitroso-N-acetyl-D, L-penicillamine]
BACE-2; SNAP 1, 5, 10 μM, 4- and 24-hour timepoints
  BACE-2 expression: up regulated in a concentration dependent manner BACE-2 expression
BACE-1; SNAP 1, 5, 10 μM, 4- and 24-hour exposures
  BACE-1 expression: reduced BACE-1 expression in a concentration dependent manner

## N[C@@H](Cc1c[nH]c2ccc(O)cc12)C(=O)O [5-hydroxytryptophan]
[1]
  morphine per ganglion wet weight: 2.1±0.41 ng morphine per ganglion
[2]
  pedal ganglionic morphine levels after injection: failed to increase ganglionic morphine levels

## CC(N)(Cc1ccc(O)cc1)C(=O)O (stereo not drawn) [AMPT, alpha-methyl-para-tyrosine]
[1]
  effect of enzyme inhibitor on precursor-induced morphine production: less tyrosine-induced morphine production
[2]
  morphine levels after injection of inhibitor alone: did not exhibit any change in morphine levels

## CN1CC[C@]23c4c5ccc(O)c4O[C@H]2[C@@H](O)CC[C@H]3[C@H]1C5 [Dihydromorphine, dihydromorphine]
Pedal ganglia
  NO Peak Level: 23.2 ± 3.7 nM
  NO Peak Time: 0.9 ± 0.3 min
mu3 opiate receptor
  IC50: 0.0191 ± 0.0033 µM

## N[C@@H](Cc1ccc(O)c(O)c1)C(=O)O [L-DOPA]
[1]
  morphine in ganglia: 9.31 ng/mL
  ganglionic morphine levels versus control: significantly higher
  morphine per ganglion wet weight: 3.6±0.45 ng morphine per ganglion
[2]
  pedal ganglionic morphine levels after injection: significantly increased pedal ganglionic morphine levels
PMNs
  level of PMN activation: 3.7±0.4%
PMNs; L-DOPA treated and IL-1β treated PMNs mixed 1:1
  percent of activated cells in mixed PMN population: 12.5±3.7%
[3]
  WBC morphine concentrations versus untreated cells: significantly increased WBC morphine concentrations
  Morphine levels in media after the cells were removed: 1.234 ± 0.26
  morphine concentrations in WBC: 136.5±12.43 pg/million cells

## N[C@@H](Cc1ccc(O)cc1)C(=O)O [L-tyrosine]
[1]
  ganglionic morphine levels after in vitro incubation: 2.39 ± 0.64 ng/g
  share of added precursor converted to morphine: About 7%
[2]
  ganglionic morphine levels after injection: 2.46±0.22 ng/g wet weight
  decrease in ganglionic morphine levels when the respective enzyme inhibitor was topically applied: 30%
[3]
  Morphine levels in media after the cells were removed: 2.223 ± 0.38

## COC1=C[C@]23CCN(C)[C@H](Cc4ccc(OC)c(O)c42)C3=CC1=O [Salutaridine, salutaridine]
Pedal ganglia
  NO Peak Level: 18.5 ± 3.3 nM
  NO Peak Time: 8.9 ± 1.3 min
mu3 opiate receptor
  IC50: > 1 µM

## Oc1ccc(CC2NCCc3cc(O)c(O)cc32)cc1O (stereo not drawn) [THP, norlaudanosoline]
[1]
  ganglionic morphine levels after exposure: significantly enhanced morphine levels
  ganglionic morphine levels versus control: significantly higher
  share of added precursor converted to morphine: About 20%
[3]
  WBC morphine concentrations versus untreated cells: significantly increased WBC morphine concentrations
  Morphine levels in media after the cells were removed: 2.028 ± 0.42
  morphine concentrations in WBC: 90.25±10.42 pg/million cells

## NCCc1ccc(O)cc1 [Tyramine, tyramine]
[1]
  ganglionic morphine levels after in vitro incubation: 2.51 ± 0.36 ng/g
  share of added precursor converted to morphine: About 7%
[2]
  ganglionic morphine levels after injection: 3.28±0.45 ng/g wet weight
  decrease in ganglionic morphine levels when the respective enzyme inhibitor was topically applied: 25%
[4]; from 4.98±0.27
  ganglionic DA level after tyramine injection: 9.17±1.21 μg/g wet weight
[4]; from 10.13±1.24
  hemolymph DA level after tyramine: 16.47 ± 1.28 µg/mL
[4]; tyramine 100 μg/mL incubation, PBS 10.13±0.34
  hemolymph DA (FIG. 19 legend): 16.47±2.28 μg of DA/mL
[4]; tyramine injection 100 μg/animal, PBS 4.78±0.27
  ganglia DA (FIG. 19 legend): 9.17±1.21 μg of DA/g
[3]
  WBC morphine concentrations versus untreated cells: significantly increased WBC morphine concentrations

## CCc1cccc2cc(C(O)CNC(C)(C)C)oc12 (stereo not drawn) [bufuralol]
[3]
  effect on precursor-induced morphine synthesis in PMNs: significantly diminished synthesis of morphine

## COc1ccc2c3c1O[C@H]1[C@@H](O)C=C[C@H]4[C@@H](C2)N(C)CC[C@@]341 [codeine]
[1]
  ganglionic morphine levels after exposure: significantly enhanced morphine levels

## NCCc1ccc(O)c(O)c1 [dopamine]
[1]
  morphine in ganglia: 8.82 ng/mL
  ganglionic morphine levels after exposure: significantly enhanced morphine levels

## CN1CC[C@]23c4c5ccc(O)c4O[C@H]2[C@@H](O)C=C[C@H]3[C@H]1C5.O=S(=O)(O)O [morphine sulfate]
[5]
  confluency: about 78%
[6]; morphine sulfate 5 μM, baseline 2 nM NO
  peak NO release: 22.3 nM

## C=CCN1CC[C@]23c4c5ccc(O)c4O[C@H]2C(=O)CC[C@@]3(O)[C@H]1C5 [naloxone]
Pedal ganglia; naloxone 10^−6 M, reticuline 10^−7 M
  effect of naloxone pre-treatment on reticuline-stimulated NO release: blocking the reticuline (10^−7 M) stimulated release of NO
PMNs; mixed with L-DOPA-treated PMNs
  level of activation in mixed PMN population, IL-1β-treated cells co-treated with naloxone: 35.2±6.3%
[6]; naloxone 10^−6 M, L-NAME 10^−4 M
  NO release induced by 10^−6 M morphine in presence of blocker: 3.2 nM NO
BACE-2; [8]
  effect of pre-treatment on morphine's effect on BACE-2 expression: blocked by naloxone
[7]
  effect on morphine neuroprotection, Form Factor: reversal in morphine neuroprotection
BACE-1; [8]
  effect of pre-treatment on morphine's effect on BACE-1 expression: blocked by naloxone

## C=C[C@H]1C[N@@]2CC[C@H]1C[C@@H]2[C@@H](O)c1ccnc2ccc(OC)cc12 [quinidine]
[1]; quinidine 10^−6 M
  effect of quinidine on morphine increase by THP, reticuline, DA, or codeine: significantly blocked by quinidine exposure
[1]
  effect of enzyme inhibitor on precursor-induced morphine production: less tyramine-induced morphine production
[2]
  morphine levels after injection of inhibitor alone: did not exhibit any change in morphine levels
[4]; 100 μg/animal
  ganglia DA, tyramine and quinidine injections (FIG. 19 legend): 2.57±0.32 μg of DA/g
[4]; ganglionic and hemolymph
  effect of quinidine on tyramine-induced DA level increases: blocked by quinidine exposure
[4]; tyramine 100 μg/mL, quinidine 10 μg/mL
  hemolymph DA, tyramine and quinidine exposure (FIG. 19 legend): 10.24 μg of DA/mL
[3]
  effect on precursor-induced morphine synthesis in PMNs: blocked morphine synthesis

## IL-1β: cytokine used to activate PMNs
PMNs
  level of PMN activation: 43.4±5.7%

## TNF-α
Mytilus animals
  animals that died: about 20%

B1: IFNγ: interferon used to simulate an immune response (protein, UniProt P01579 24-161, looked up)
Interferon gamma: QDPYVKEAENLKKYFNAGHSDVADNGTLFLGILKNWKEESDRKIMQSQIVSFYFKLFKNFKDDQSIQKSVETIKEDMNVKFFNSNKKKRDDFEKLTNYSVTDLNVQRKAIHELIQVMAELSPAAKTGKRKRSQMLFRG
[5]; IFNγ
  cellular death: did not cause significant cellular death
